Experimental data reported in patent US7608282B2, “Transdermal granisetron” (Strakan International Limited, priority 2003, dated 2009).
Counter-ions that a name gives are not always drawn.

What was measured:
[1] = acrylic adhesives, WO98/53815; cited from earlier work
[2] = system: delayed emesis in cancer patients; assay: continual IV infusion of granisetron in cancer patients, delayed emesis (Kalaycio et al.); assay type: in vivo, human; conditions: continual IV infusion at 40 μg/h
Source text: The minimum therapeutic plasma level required for efficacious use of any drug is ideally assessed by titrated, prolonged IV infusion studies coupled to clinical response in patients.

[3] = cited from earlier work
[4] = single administration of a 1 mg tablet, human volunteers; cited from earlier work
[5] = system: delayed emesis in cancer patients; conditions: continual IV infusion at 40 μg/h; cited from earlier work
[6] = system: post-operative nausea and vomiting; conditions: doses as low as 0.1 mg; cited from earlier work
[7] = continual twice daily dosing of 1 mg in cancer patients

SMILES	stability in adhesives containing nucleophilic (hydroxyl) moieties [1]	plasma level maintained [2]	average peak plasma levels [3, 7] [ng/mL]	clearance [3, 7] [mL/min/kg]	Tmax ([3]; oral granisetron, population not given)	Cmax [4] [ng/mL]	effect on delayed emesis [5]	prevention of post-operative nausea and vomiting [6]
CN1[C@@H]2CC[C@H]1C[C@@H](OC(=O)c1c[nH]c3ccccc13)C2 [tropisetron]	unstable	–	–	–	–	–	–	–
CN1C2CCCC1CC(NC(=O)c1nn(C)c3ccccc13)C2 (stereo not drawn) [granisetron, N-endo-9-methyl-9-azabicyclo[3.3.1]non-3-yl-1-methylindazole-3-carboxamide hydrochloride]	–	approximately 1.5 ng/ml	6	8.67	approximately 2 hours	3.6	alleviate delayed emesis	effective
